According to ChEMBL document CHEMBL2069252, “Pyrazole diaminopyrimidines as dual inhibitors of KDR and Aurora B kinases” (Bioorg Med Chem Lett, 2012):
Calls of active or inactive are those of the source. No cut-off for these calls is given here.

Columns and labels:
[1] = biological target: T1, Protein kinase C epsilon type (Homo sapiens, UniProt Q02156); experiment: Inhibition of PKCepsilon by TR-FRET analysis
T1 sequence (Q02156 whole entry): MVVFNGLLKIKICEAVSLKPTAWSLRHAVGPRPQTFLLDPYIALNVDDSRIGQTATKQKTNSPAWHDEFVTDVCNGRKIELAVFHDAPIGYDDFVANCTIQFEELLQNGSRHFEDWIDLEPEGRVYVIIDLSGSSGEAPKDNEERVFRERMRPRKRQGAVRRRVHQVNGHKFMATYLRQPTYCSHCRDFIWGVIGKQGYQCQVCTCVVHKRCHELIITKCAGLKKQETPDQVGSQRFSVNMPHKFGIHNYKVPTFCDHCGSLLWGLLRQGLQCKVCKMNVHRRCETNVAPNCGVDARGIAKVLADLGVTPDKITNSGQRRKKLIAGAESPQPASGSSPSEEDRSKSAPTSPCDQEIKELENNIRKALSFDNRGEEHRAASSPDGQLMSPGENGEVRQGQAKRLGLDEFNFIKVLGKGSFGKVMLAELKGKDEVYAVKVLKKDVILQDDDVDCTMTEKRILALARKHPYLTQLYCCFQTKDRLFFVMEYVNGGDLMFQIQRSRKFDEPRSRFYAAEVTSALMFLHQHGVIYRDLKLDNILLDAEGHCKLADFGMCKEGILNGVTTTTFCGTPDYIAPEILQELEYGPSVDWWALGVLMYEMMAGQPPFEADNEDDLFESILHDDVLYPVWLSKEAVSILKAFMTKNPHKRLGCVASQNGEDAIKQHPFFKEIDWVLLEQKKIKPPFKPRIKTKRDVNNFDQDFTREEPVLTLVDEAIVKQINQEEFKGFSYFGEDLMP

Mus musculus [2] = experiment: Toxicity in mouse xenografted with human DOHH2 cells assessed as weight loss at 10 mg/kg, ip administered Q7d for 3 weeks; details: in vivo, 504 h
Mus musculus [3] = experiment: Toxicity in mouse xenografted with human DOHH2 cells assessed as mortality at 10 mg/kg, ip administered Q7d for 3 weeks; details: in vivo, 504 h
[4] = biological target: T2, Receptor-type tyrosine-protein kinase FLT3 (Homo sapiens, UniProt P36888); experiment: Inhibition of Flt3 by TR-FRET analysis
T2 sequence (P36888 whole entry): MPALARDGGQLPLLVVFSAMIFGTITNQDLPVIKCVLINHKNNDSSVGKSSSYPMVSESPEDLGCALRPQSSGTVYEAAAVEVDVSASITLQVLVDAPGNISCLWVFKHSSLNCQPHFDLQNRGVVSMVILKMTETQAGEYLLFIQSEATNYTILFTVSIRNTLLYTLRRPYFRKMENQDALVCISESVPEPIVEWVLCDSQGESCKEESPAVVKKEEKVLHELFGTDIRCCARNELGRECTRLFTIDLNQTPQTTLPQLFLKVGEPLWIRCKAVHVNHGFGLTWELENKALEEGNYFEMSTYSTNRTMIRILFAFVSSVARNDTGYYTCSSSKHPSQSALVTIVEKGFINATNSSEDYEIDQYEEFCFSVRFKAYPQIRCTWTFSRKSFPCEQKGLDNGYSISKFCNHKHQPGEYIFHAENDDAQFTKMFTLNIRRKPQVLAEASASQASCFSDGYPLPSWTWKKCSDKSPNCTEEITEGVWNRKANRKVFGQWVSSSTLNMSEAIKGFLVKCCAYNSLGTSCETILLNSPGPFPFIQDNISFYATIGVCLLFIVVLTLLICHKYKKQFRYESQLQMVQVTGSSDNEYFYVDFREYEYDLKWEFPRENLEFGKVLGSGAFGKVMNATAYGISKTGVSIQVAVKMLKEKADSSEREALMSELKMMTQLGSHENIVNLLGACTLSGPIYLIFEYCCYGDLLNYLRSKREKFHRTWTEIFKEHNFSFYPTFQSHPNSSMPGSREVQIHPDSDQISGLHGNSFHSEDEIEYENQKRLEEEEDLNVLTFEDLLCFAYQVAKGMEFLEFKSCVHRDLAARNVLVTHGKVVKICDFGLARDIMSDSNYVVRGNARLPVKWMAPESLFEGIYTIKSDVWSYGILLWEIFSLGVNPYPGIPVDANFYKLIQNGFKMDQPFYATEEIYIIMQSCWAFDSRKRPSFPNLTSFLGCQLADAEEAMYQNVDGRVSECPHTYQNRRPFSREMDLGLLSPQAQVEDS

[5] = biological target: Platelet-derived growth factor receptor alpha (Homo sapiens, UniProt P16234); experiment: Inhibition of PDGFRalpha by TR-FRET analysis
DOHH-2 = details: Homo sapiens
Description: Antitumor activity against human DOHH2 cells xenografted in mouse tumor model assessed as tumor growth inhibition at 10 mg/kg, ip administered Q7d for 3 weeks

NCI-H1299 = experiment: Cell cycle arrest in human NCI-H1299 cells assessed as induction of polyploidy after 48 hrs by Hoechst staining-based fluorescence microscopic analysis; type: functional; details: NCI-H1299, 48 h
Wee1-like protein kinase = Wee1-like protein kinase (Homo sapiens, UniProt P30291); experiment: Inhibition of Wee1 by TR-FRET analysis
[6] = biological target: Fibroblast growth factor receptor 2 (Homo sapiens, UniProt P21802); experiment: Inhibition of FGFR2 by TR-FRET analysis
[7] = biological target: Glycogen synthase kinase-3 beta (Homo sapiens, UniProt P49841); experiment: Inhibition of GSK3beta by TR-FRET analysis
Aurora kinase A = biological target: T3, Aurora kinase A (Homo sapiens, UniProt O14965); experiment: Inhibition of Aurora A by TR-FRET analysis
T3 sequence (O14965 whole entry): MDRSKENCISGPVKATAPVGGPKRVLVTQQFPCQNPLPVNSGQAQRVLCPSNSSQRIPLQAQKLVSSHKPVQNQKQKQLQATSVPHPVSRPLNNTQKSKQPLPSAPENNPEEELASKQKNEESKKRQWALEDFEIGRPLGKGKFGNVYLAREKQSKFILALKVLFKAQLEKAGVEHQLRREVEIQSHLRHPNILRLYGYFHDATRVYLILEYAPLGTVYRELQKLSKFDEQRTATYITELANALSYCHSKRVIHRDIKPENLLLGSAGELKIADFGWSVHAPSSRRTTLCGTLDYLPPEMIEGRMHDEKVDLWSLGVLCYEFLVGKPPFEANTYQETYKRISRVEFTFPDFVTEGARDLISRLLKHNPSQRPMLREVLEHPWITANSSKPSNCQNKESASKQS

Glycogen synthase kinase-3 beta, sequence (P49841 whole entry): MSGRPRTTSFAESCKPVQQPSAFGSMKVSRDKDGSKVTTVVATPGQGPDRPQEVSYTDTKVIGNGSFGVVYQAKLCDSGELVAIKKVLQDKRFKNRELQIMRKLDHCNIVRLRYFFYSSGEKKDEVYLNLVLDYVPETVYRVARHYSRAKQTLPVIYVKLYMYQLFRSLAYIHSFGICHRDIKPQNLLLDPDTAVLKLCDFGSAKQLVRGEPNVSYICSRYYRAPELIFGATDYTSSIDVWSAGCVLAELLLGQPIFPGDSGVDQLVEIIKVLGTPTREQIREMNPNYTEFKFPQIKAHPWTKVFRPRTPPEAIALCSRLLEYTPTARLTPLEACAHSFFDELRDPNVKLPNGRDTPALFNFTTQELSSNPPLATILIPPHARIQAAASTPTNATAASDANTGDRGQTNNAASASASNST
Fibroblast growth factor receptor 2, sequence (P21802 whole entry): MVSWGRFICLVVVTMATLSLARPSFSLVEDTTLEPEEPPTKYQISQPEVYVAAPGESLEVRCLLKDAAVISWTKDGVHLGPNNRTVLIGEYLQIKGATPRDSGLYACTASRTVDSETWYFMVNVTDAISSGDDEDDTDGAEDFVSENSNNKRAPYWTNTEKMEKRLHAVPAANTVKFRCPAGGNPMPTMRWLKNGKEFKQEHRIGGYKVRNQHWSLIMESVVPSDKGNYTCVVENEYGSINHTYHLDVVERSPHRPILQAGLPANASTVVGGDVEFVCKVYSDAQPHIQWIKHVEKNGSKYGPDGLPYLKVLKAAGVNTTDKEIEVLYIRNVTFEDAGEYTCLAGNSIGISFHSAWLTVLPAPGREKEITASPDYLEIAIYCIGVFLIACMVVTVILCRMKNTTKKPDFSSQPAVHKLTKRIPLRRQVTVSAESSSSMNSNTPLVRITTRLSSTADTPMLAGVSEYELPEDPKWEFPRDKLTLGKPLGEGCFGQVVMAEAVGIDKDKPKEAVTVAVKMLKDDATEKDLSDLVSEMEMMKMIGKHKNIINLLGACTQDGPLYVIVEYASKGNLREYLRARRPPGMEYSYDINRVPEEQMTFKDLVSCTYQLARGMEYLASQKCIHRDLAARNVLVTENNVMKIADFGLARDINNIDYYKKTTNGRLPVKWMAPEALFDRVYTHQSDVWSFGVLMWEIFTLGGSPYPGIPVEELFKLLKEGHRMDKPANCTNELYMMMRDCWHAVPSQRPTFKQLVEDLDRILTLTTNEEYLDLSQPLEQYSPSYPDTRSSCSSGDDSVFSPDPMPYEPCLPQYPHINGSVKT
Platelet-derived growth factor receptor alpha, sequence (P16234 whole entry): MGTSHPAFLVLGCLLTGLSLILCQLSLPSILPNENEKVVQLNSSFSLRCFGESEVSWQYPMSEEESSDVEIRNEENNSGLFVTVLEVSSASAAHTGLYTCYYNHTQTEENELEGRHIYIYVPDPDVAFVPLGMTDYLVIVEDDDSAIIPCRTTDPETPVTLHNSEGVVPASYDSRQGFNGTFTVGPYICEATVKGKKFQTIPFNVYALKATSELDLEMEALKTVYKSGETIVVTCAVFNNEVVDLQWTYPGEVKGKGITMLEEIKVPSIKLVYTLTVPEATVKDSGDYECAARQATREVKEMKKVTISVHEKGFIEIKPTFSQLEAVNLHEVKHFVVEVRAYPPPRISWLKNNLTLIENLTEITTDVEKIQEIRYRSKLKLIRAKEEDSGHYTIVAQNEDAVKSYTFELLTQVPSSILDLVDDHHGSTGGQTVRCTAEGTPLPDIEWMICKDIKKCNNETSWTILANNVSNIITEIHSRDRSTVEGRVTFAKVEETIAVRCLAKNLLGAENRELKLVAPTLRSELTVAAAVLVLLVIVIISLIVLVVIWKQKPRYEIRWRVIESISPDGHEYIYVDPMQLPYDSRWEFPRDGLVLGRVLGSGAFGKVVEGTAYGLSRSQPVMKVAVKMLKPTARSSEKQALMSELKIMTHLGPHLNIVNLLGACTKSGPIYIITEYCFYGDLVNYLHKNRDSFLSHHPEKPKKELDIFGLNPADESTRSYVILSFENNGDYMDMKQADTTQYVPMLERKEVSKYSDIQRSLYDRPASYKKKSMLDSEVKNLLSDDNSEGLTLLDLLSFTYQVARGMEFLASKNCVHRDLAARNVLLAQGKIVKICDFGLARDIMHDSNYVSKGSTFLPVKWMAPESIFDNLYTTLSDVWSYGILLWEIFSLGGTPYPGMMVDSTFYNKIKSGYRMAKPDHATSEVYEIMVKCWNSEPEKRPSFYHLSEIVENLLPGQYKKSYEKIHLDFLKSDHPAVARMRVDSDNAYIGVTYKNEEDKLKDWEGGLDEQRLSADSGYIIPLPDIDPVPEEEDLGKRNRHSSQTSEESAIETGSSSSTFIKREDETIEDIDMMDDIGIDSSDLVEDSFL
Wee1-like protein kinase, sequence (P30291 whole entry): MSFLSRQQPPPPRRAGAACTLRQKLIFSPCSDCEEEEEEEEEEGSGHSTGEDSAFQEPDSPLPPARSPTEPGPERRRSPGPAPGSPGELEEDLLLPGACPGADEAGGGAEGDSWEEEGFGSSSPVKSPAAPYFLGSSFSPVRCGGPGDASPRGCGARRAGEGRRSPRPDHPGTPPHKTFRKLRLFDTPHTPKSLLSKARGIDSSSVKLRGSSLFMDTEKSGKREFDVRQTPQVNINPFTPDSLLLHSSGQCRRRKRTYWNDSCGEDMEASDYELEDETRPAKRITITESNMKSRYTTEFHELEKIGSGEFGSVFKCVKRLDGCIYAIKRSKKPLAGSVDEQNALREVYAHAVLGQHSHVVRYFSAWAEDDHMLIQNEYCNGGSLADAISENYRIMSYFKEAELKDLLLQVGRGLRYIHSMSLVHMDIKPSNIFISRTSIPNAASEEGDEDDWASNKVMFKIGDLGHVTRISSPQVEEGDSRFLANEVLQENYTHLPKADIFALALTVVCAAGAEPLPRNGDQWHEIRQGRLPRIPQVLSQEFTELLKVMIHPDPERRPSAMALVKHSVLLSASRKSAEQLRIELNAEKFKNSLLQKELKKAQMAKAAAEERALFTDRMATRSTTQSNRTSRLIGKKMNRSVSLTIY

## Cn1cc(Nc2ncc(Br)c(N[C@H]3[C@@H](C(N)=O)[C@@H]4C=C[C@H]3C4)n2)cn1
[1]
  IC50: 82 nM
Mus musculus [2]
  Activity: Toxic
Mus musculus [3]
  Activity: Toxic
[4]
  IC50: 1 nM
[5]
  IC50: 1 nM
DOHH-2
  TGI: Active
NCI-H1299
  EC15: < 3 nM
Wee1-like protein kinase
  IC50: 2800 nM
[6]
  IC50: 2 nM
[7]
  IC50: 34 nM
Aurora kinase A
  IC50: 3 nM
